Measured values from publication PMC4474394 (OncoTargets and therapy, 2015).

Experiment: In vivo biodistribution in NCI-H157-bearing BALB/c nude mice
Settings: 99mTc-labeled peptide, judged from weak accumulation in brain tissue

Blood–brain barrier penetration: poor
Sequence: TMPFLFCNVNDVCNFASRNDYSKKK [T7]
